Measurements taken from US9174974B2, “Macrocyclic factor VIIa inhibitors” (BRISTOL-MYERS SQUIBB COMPANY, priority 2012, dated 2015).

Tests used:
human FVIIa = human FVIIa (Homo sapiens (Human), UniProt P08709); assay: FVIIa Ki (37° C.), FVIIa-Xase assay; assay type: biochemical; settings: for Ki: read-out: FVIIa Ki, nM 37° C.; for Ki(HK1)/Ki(FVIIa): selectivity ratio, tissue kallikrein (HK1) vs FVIIa
tissue kallikrein (HK1) = tissue kallikrein (HK1) (Homo sapiens (Human), UniProt P06870); assay: Tissue kallikrein-1 (HK1) Ki, fluorogenic substrate assay; assay type: biochemical; settings: 37° C.
tissue kallikrein (HK1), sequence (P06870 25-262): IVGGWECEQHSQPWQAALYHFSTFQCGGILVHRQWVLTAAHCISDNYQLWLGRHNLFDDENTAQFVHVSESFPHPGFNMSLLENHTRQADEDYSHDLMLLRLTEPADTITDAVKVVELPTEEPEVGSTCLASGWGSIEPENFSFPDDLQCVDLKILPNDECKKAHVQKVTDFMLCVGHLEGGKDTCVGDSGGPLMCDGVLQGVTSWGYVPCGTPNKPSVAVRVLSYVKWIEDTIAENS

human FVIIa, sequence (P08709 61-212): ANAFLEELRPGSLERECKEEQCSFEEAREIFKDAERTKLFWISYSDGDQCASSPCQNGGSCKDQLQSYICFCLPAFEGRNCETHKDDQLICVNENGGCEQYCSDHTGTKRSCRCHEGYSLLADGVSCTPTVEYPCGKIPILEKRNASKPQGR
human FVIIa, sequence (P08709 213-466): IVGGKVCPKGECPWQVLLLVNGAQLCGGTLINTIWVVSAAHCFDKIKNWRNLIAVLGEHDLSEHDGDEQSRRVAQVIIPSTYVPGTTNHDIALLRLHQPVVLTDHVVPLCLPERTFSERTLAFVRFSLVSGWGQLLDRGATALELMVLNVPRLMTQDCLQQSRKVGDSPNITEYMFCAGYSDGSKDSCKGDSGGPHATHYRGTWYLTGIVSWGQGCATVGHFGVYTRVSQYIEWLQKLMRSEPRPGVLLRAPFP
human FVIIa, sequence (P13726 33-295 partner): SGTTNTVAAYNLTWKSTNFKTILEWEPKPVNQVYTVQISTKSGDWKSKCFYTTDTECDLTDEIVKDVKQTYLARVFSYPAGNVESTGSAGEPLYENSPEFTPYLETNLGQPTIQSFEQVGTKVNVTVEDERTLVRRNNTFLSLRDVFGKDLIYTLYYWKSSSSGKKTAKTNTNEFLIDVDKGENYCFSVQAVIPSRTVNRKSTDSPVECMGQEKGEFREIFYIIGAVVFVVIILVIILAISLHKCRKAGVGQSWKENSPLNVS

| Ki (human FVIIa) [nM] | Ki(HK1)/Ki(FVIIa) (human FVIIa) | Ki (tissue kallikrein (HK1)) [nM] | Structure (SMILES) |
| --- | --- | --- | --- |
| 0.14 | 357 | 50 | Cc1cc2ccc1[C@@H](C)COC(=O)Nc1cc(F)c(O[C@@H](C)CO)c(c1)CN(C)C(=O)[C@@H]2Nc1ccc2c(N)nccc2c1.O=C(O)C(F)(F)F [Example 33, (2R,15R)-2-[(1-Aminoisoquinolin-6-yl)amino]-8-fluoro-7-{[(2S)-1-hydroxypropan-2-yl]oxy}-4,15,20-trimethyl-13-oxa-4,11-diazatricyclo[14.2.2.16,10]henicosa-1(18),6,8,10 (21),16,19-hexaene-3,12-dione; trifluoroacetic acid] |
| 0.2 | 1450 | 290 | COCCCOc1c(F)cc2cc1CN(C)C(=O)[C@H](Nc1ccc3c(N)nccc3c1)c1ccc(c(C)c1)[C@@H](C)COC(=O)N2.O=C(O)C(F)(F)F [Example 28, (2R,15R)-2-[(1-Aminoisoquinolin-6-yl)amino]-8-fluoro-7-(3-methoxypropoxy)-4,15,20-trimethyl-13-oxa-4,11-diazatricyclo[14.2.2.1^6,10]henicosa-1(18),6,8,10 (21),16,19-hexaene-3,12-dione; trifluoroacetic acid] |
|  |  | 200 | Cc1cc2ccc1[C@@H](CF)COC(=O)Nc1ccc(S(=O)(=O)C3CC3)c(c1)CN(C)C(=O)[C@@H]2Nc1ccc2c(N)nccc2c1.O=C(O)C(F)(F)F [Example 24, (2R,15R)-2-[(1-Aminoisoquinolin-6-yl)amino]-7-(cyclopropanesulfonyl)-15-(fluoromethyl)-4,17-dimethyl-13-oxa-4,11-diazatricyclo[14.2.2.1^6,10]henicosa-1(18),6,8,10 (21),16,19-hexaene-3,12-dione; trifluoroacetic acid] |
| 0.25 | 1080 | 270 | COc1cc2c(F)cc1[C@@H](C)COC(=O)Nc1ccc(S(=O)(=O)C3CC3)c(c1)CN(C)C(=O)[C@@H]2Nc1cc2ccnc(N)c2cc1F.O=C(O)C(F)(F)F [Example 25, (2R,15R)-2-[(1-Amino-7-fluoroisoquinolin-6-yl)amino]-7-(cyclopropanesulfonyl)-18-fluoro-20-methoxy-4,15-dimethyl-13-oxa-4,11-diazatricyclo[14.2.2.1^6,10]henicosa-1(18),6,8,10 (21),16,19-hexaene-3,12-dione; trifluoroacetic acid] |
| 2 | 145 | 290 | Cc1cc2cc(C)c1C(F)(F)COC(=O)Nc1ccc(S(=O)(=O)C3CC3)c(c1)CN(C)C(=O)[C@@H]2Nc1ccc2c(N)nccc2c1.O=C(O)C(F)(F)F [Example 5, (2R)-2-[(1-Aminoisoquinolin-6-yl)amino]-7-(cyclopropanesulfonyl)-15,15-difluoro-4,17,20-trimethyl-13-oxa-4,11-diazatricyclo[14.2.2.1^6,10]henicosa-1(18),6,8,10 (21),16,19-hexaene-3,12-dione; trifluoroacetic acid] |
|  |  | 300 | CCN(Cc1nccs1)C(=O)c1ccc2cc1CN(C)C(=O)[C@H](Nc1ccc3c(N)nccc3c1)c1cc(C)c(c(C)c1)C(F)(F)COC(=O)N2.O=C(O)C(F)(F)F [Example 4, (2R)-2-[(1-Aminoisoquinolin-6-yl)amino]-N-ethyl-15,15-difluoro-4,17,20-trimethyl-3,12-dioxo-N-(1,3-thiazol-2-ylmethyl)-13-oxa-4,11-diazatricyclo[14.2.2.1^6,10]henicosa-1(18),6,8,10 (21),16,19-hexaene-7-carboxamide; trifluoroacetic acid] |
| > 140 |  |  | C[C@H]1COC(=O)Nc2cccc(c2)CNC(=O)C(Nc2ccc3c(N)nccc3c2)c2ccc1cc2 (stereo partly drawn) [Comparator 4, reference compound] |
